Experiment: Measurement of decrease in fluorescence of drug delivering composite
Assay type: physicochemical
Details: measured as a function of time, FIGS. 16A and 16B
Excerpt: FIGS. 16A and 16B are graphs illustrating a measurement of a decrease in a fluorescence of the drug delivering composite prepared in Example 6.
FIG. 16A is a graph illustrating the measurement of a change in fluorescence of a doxorubicin solution according to time, and FIG. 16B is a graph illustrating the measurement of changes in fluorescence of the doxorubicin solution and the drug delivering composite according to an embodiment. […] However, a reduction in fluorescence of doxorubicin alone was not observed when measured as a function of time.

COc1cccc2c1C(=O)c1c(O)c3c(c(O)c1C2=O)C[C@@](O)(C(=O)CO)C[C@@H]3O[C@H]1C[C@H](N)[C@H](O)[C@H](C)O1 [doxorubicin]
Change in fluorescence: not observed
